What was measured:
[1] = test system: A/Kanagawa/IC18141/2019, influenza A(H3N2) virus carrying polymerase acidic I38T substitution; type: cell-based
[2] = test system: mutant influenza A(H3N2) viruses encoding the polymerase acidic I38T substitution; details: human, in vivo
[3] = target: neuraminidase (NA) of A/Kanagawa/IC18141/2019 (Influenza A virus (H3N2), UniProt A0A193ACB1); type: biochemical

O=C1c2c(O)c(=O)ccn2N([C@@H]2c3ccccc3SCc3c2ccc(F)c3F)[C@@H]2COCCN12 [Baloxavir, baloxavir acid]
IC50 [1]: 236 nM
fold higher IC50 value compared with the median IC50 of A(H3N2) viruses of the 2018–19 season [1]: 186 fold
time to fever resolution after administration [2]: within a half day

CCC(CC)[C@H](NC(C)=O)[C@@H]1[C@H](O)[C@@H](C(=O)O)C[C@H]1N=C(N)N [Peramivir, peramivir]
IC50 [3]: 0.18 nM
NA inhibitor susceptibility by WHO criteria (fold change in IC50 vs median of same-season isolates) [3]: 0.18 (NI) (key: NI: normal (<10-fold increase); reduced (10–100-fold increase); highly reduced (>100-fold increase))
